Our source for the IC50 values is patent US7855290B2, “Pyridine derivatives and pyrimidine derivatives (3)” (Eisai R&D Management Co., Ltd., priority 2005, dated 2010).

Assay [1] deals with Human gastric cancer cells (MKN-45). As to the kind of experiment: Inhibitory activity against the proliferation of human gastric cancer cells (MKN-45). In kind it is cell-based. The conditions noted are these: 72 h, MKN-45, 1% FBS RPMI1640, 3 days, Cell Counting Kit-8. The procedure, abridged:
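MKN-45 cells seeded overnight in RPMI1640 with 1% FBS, then exposed to compound for 3 days at 37° C, 5% CO2. Viability read with CCK-8 after about 1.5 hrs, absorbance at 450 nm (reference 660 nm).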

Assay [2] deals with T1, His6-HGFR (HGFR cytoplasmic domain) (Homo sapiens, UniProt P08581).
T1 construct: made in house; host or cells: Sf9 insect cells (Spodoptera frugiperda), baculovirus, pFastBac-HT vector
The assay is described as follows: Inhibitory activity against HGFR tyrosine kinase activity (HTRF). The format is biochemical. The conditions noted are these: biotin-poly(GT), ATP, 30° C. 10 min. The method in brief:
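Sf9-expressed, Ni-NTA-purified N-terminal His6-tagged HGFR cytoplasmic domain (from Lys974), 30 ng, phosphorylates 250 ng biotin-poly(GT) in Hepes pH 7.4 with MgCl2, MnCl2 and Na3VO4. Reaction started with 4 μM ATP stock, run 10 min at 30° C, stopped with EDTA. Phosphotyrosine is detected by HTRF.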
For orientation: TR-FRET usually uses a lanthanide donor and a delayed reading to cut background.

Molecules are shown by their SMILES.

T1 sequence (P08581 956-1390 limits assumed): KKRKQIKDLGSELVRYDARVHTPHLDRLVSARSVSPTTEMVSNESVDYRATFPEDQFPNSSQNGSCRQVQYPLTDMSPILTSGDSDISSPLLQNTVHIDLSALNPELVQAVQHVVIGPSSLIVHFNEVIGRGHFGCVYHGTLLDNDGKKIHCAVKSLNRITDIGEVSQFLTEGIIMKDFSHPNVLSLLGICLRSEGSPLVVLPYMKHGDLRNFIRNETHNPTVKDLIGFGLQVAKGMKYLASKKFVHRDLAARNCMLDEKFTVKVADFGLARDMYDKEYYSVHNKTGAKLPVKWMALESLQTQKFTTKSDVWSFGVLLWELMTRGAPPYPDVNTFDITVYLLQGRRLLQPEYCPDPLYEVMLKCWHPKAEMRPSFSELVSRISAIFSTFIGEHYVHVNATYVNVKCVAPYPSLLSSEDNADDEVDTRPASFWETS

For the molecule `O=C(Nc1cc(Oc2ccc(NC(=O)C3(C(=O)Nc4ccc(F)cc4)CC3)c(F)c2)ccn1)N1CCOCC1` [Example 63, N-[2-Fluoro-4-({2-[(morpholin-4-ylcarbonyl)amino]pyridin-4-yl}oxy)phenyl]-N′-(4-fluorophenyl)cyclopropane-1,1-dicarboxamide], the IC50 – broadly, the concentration needed to halve the response being measured – was found to be 54 nM in assay [1] and 14 nM in assay [2].
Regarding `O=C(Nc1cc(Oc2ccc(NC(=O)C3(C(=O)Nc4ccc(F)cc4)CC3)cc2F)ccn1)N1CC(O)C1` [Example 80, N-{3-Fluoro-4-[(2-{[(3-hydroxyazetidin-1-yl)carbonyl]amino}pyridin-4-yl)oxy]phenyl}-N′-(4-fluorophenyl)cyclopropane-1,1-dicarboxamide], the 50% inhibitory concentration (IC50) in assay [1] and in assay [2] was 18 nM each time.
With `O=C(Nc1cc(Oc2ccc(NC(=O)C3(C(=O)Nc4ccc(F)cc4)CC3)cc2F)ncn1)N1CCC(N2CCC2)CC1` [Example 34, N-{4-[(6-{[(4-Azetidin-1-ylpiperidin-1-yl)carbonyl]amino}pyrimidin-4-yl)oxy]-3-fluorophenyl}-N′-(4-fluorophenyl)cyclopropane-1,1-dicarboxamide], the IC50 in assay [1] worked out at 190 nM; in assay [2], 73 nM.
`CN(C)C1CN(C2CCN(C(=O)Nc3cc(Oc4ccc(NC(=O)C5(C(=O)Nc6ccc(F)cc6)CC5)c(F)c4)ccn3)CC2)C1` [Example 14, N-[4-({2-[({4-[3-(Dimethylamino)azetidin-1-yl]piperidin-1-yl}carbonyl)amino]pyridin-4-yl}oxy)-2-fluorophenyl]-N′-(4-fluorophenyl)cyclopropane-1,1-dicarboxamide]: the IC50 in assay [1] worked out at 17 nM; in assay [2], 60 nM.
In the same order, the values of `CN1CCN(C2CCN(C(=O)Nc3cc(Oc4ccc(NC(=O)C5(C(=O)Nc6ccc(F)cc6)CC5)cc4F)ccn3)CC2)CC1` [Example 20, N-(3-Fluoro-4-{[2-({[-4-(4-methylpiperazin-1-yl)piperidin-1-yl]-carbonyl}amino)pyridin-4-yl]oxy}phenyl)-N′-(4-fluorophenyl)cyclopropane-1,1-dicarboxamide] are 15 nM and 59 nM.
For `CN1CCC(N(C)C(=O)Nc2cc(Oc3ccc(NC(=O)C4(C(=O)Nc5ccccc5)CC4)c(F)c3)ccn2)CC1` [Example 48, N-(2-Fluoro-4-{[2-({[methyl(1-methylpiperidin-4-yl)amino]carbonyl}amino)pyridin-4-yl]oxy}phenyl)-N′-phenylcyclopropane-1,1-dicarboxamide], in that order: 17 nM and 63 nM.
For `O=C(Nc1cc(Oc2ccc(NC(=O)C3(C(=O)Nc4ccc(F)cc4)CC3)cc2F)ccn1)N1CCC1` [Example 65, N-[4-({2-[(Azetidin-1-ylcarbonyl)amino]pyridin-4-yl}oxy)-3-fluorophenyl]-N′-(4-fluorophenyl)cyclopropane-1,1-dicarboxamide], the IC50 in assay [1] was 23 nM; in assay [2], 15 nM.
`O=C(Nc1cc(Oc2ccc(NC(=O)C3(C(=O)Nc4ccc(F)cc4)CC3)c(F)c2)ccn1)N1CCC(CN2CCC2)CC1` [Example 37, N-(4-{[2-({[4-(Azetidin-1-ylmethyl)piperidin-1-yl]carbonyl}amino)pyridin-4-yl]oxy}-2-fluorophenyl)-N′-(4-fluorophenyl)cyclopropane-1,1-dicarboxamide]: the IC50 in assay [1] was 14 nM; in assay [2], 53 nM.
In the same order, the values of `CCN(CC)CCCNC(=O)Nc1cc(Oc2ccc(NC(=O)C3(C(=O)Nc4ccc(F)cc4)CC3)c(Cl)c2)ccn1` [Example 43, N-[2-Chloro-4-({2-[({[3-(diethylamino)propyl]amino}carbonyl)amino]pyridin-4-yl}oxy)phenyl]-N′-(4-fluorophenyl)cyclopropane-1,1-dicarboxamide] are 280 nM and 180 nM.
With `CN1CCC(N(C)C(=O)Nc2cc(Oc3ccc(NC(=O)C4(C(=O)Nc5ccc(F)cc5)CC4)cc3F)ncn2)CC1` [Example 33, N-(3-Fluoro-4-{[6-({[methyl(1-methylpiperidin-4-yl)amino]carbonyl}amino)pyrimidin-4-yl]oxy}phenyl)-N′-(4-fluorophenyl)cyclopropane-1,1-dicarboxamide], the IC50 in assay [1] stood at 55 nM; in assay [2], 26 nM.
For `O=C(Nc1cc(Oc2cc(F)c(NC(=O)C3(C(=O)Nc4ccc(F)cc4)CC3)cc2F)ccn1)N1CCC(O)CC1` [Example 105], the IC50 was found to be 4.1 nM in assay [1] and 15 nM in assay [2].
Regarding `CN(C)C1CCN(C(=O)Nc2cc(Oc3ccc(NC(=O)C4(C(=O)Nc5ccc(F)cc5)CC4)c(F)c3)ccn2)CC1` [Example 18, N-(4-{[2-({[4-(Dimethylamino)piperidin-1-yl]carbonyl}amino)pyridin-4-yl]oxy}-2-fluorophenyl)-N′-(4-fluorophenyl)cyclopropane-1,1-dicarboxamide], the IC50 amounted to 33 nM in assay [1] and 53 nM in assay [2].
As to `CCN(CC)CCCNC(=O)Nc1cc(Oc2ccc(NC(=O)C3(C(=O)Nc4ccc(F)cc4)CC3)cc2C)ccn1` [Example 45, N-[4-({2-[({[3-(Diethylamino)propyl]amino}carbonyl)amino]pyridin-4-yl}oxy)-3-methylphenyl]-N′-(4-fluorophenyl)cyclopropane-1,1-dicarboxamide], the IC50 was found to be 500 nM in assay [1] and 240 nM in assay [2].
For the molecule `O=C(Nc1cc(Oc2ccc(NC(=O)C3(C(=O)Nc4ccc(F)cc4)CC3)cc2)ccn1)N1CCC(N2CCC2)CC1` [Example 13, N-{4-[(2-{[(4-Azetidin-1-ylpiperidin-1-yl)carbonyl]amino}pyridin-4-yl)oxy]phenyl}-N′-(4-fluorophenyl)cyclopropane-1,1-dicarboxamide], the half-inhibitory concentration (IC50) in assay [1] is 76 nM; in assay [2] it was 55 nM.
In the same order, the values of `CN(C)C1CN(C(=O)Nc2cc(Oc3ccc(NC(=O)C4(C(=O)Nc5ccc(F)cc5)CC4)c(F)c3)ccn2)C1` [Example 76, N-(4-{[2-({[3-(Dimethylamino)azetidin-1-yl]carbonyl}amino)pyridin-4-yl]oxy}-2-fluorophenyl)-N′-(4-fluorophenyl)cyclopropane-1,1-dicarboxamide] are 19 nM and 45 nM.
Consider `CN(C)CCN1CCN(C(=O)Nc2cc(Oc3ccc(NC(=O)C4(C(=O)Nc5ccc(F)cc5)CC4)cc3)ccn2)CC1` [Example 30, N-[4-({2-[({4-[2-(Dimethylamino)ethyl]piperazin-1-yl}carbonyl)amino]pyridin-4-yl}oxy)phenyl]-N′-(4-fluorophenyl)cyclopropane-1,1-dicarboxamide], for which the half-inhibitory concentration (IC50) in assay [1] came out at 39 nM; in assay [2], 44 nM.
For `CN(C)C1CCN(C(=O)Nc2cc(Oc3cc(F)c(NC(=O)C4(C(=O)Nc5ccc(F)cc5)CC4)cc3F)ncn2)CC1` [Example 102, N-(4-{[4-({[4-(Dimethylamino)piperidin-1-yl]carbonyl}amino)pyrimidin-6-yl]oxy}-2,5-difluorophenyl)-N′-(4-fluorophenyl)cyclopropane-1,1-dicarboxamide], in that order: 40 nM and 72 nM.
Turning to `CN(C)CC1CCN(C(=O)Nc2cc(Oc3ccc(NC(=O)C4(C(=O)Nc5ccc(F)cc5)CC4)c(F)c3)ccn2)CC1` [Example 8, N-[4-({2-[({4-[(Dimethylamino)methyl]piperidin-1-yl}carbonyl)amino]pyridin-4-yl}oxy)-2-fluorophenyl]-N′-(4-fluorophenyl)cyclopropane-1,1-dicarboxamide], the 50% inhibitory concentration (IC50) came to 20 nM in assay [1] and 48 nM in assay [2].
As for `CN1CCC(N(C)C(=O)Nc2cc(Oc3ccc(NC(=O)C4(C(=O)Nc5ccc(F)cc5)CC4)cc3)ccn2)CC1` [Example 12], the figures for the IC50 in assay [1] and in assay [2] were 31 nM and 37 nM, respectively.
As for `CN1CCC(N(C)C(=O)Nc2cc(Oc3cc(F)c(NC(=O)C4(C(=O)Nc5ccc(F)cc5)CC4)cc3F)ncn2)CC1` [Example 100, N-(2,5-Difluoro-4-{[4-({[methyl(1-methylpiperidin-4-yl)amino]carbonyl}amino)pyrimidin-6-yl]oxy}phenyl)-N′-(4-fluorophenyl)cyclopropane-1,1-dicarboxamide], the results for the IC50 in assay [1] and in assay [2] were 16 nM and 85 nM, respectively.
For the molecule `O=C(Nc1cc(Oc2ccc(NC(=O)C3(C(=O)Nc4ccc(F)cc4)CC3)c(F)c2)ccn1)N1CCC(CN2CCCC2)CC1` [Example 40, N-(4-Fluorophenyl)-N′-(2-fluoro-4-{[2-({[4-(pyrrolidin-1-ylmethyl)piperidin-1-yl]carbonyl}amino)pyridin-4-yl]oxy}phenyl)cyclopropane-1,1-dicarboxamide], the IC50 is 17 nM in assay [1] and 55 nM in assay [2].
In the same order, the values of `O=C(Nc1cc(Oc2ccc(NC(=O)C3(C(=O)Nc4ccc(F)cc4)CC3)c(F)c2)ccn1)N1CC(N2CCC2)C1` [Example 73, N-[4-({2-[(1,3′-Biazetidin-1′-ylcarbonyl)amino]pyridin-4-yl}oxy)-2-fluorophenyl]-N′-(4-fluorophenyl)cyclopropane-1,1-dicarboxamide] are 50 nM and 105 nM.
In the same order, the values of `O=C(Nc1cc(Oc2ccc(NC(=O)C3(C(=O)Nc4ccc(F)cc4)CC3)c(F)c2)ccn1)N1CC(O)C1` [Example 72, N-{2-Fluoro-4-[(2-{[(3-hydroxyazetidin-1-yl)carbonyl]amino}pyridin-4-yl)oxy]phenyl}-N′-(4-fluorophenyl)cyclopropane-1,1-dicarboxamide] are 22 nM and 10 nM.
